From publication PMC12797502, “Effects of emodepside on single-channel properties of Onchocerca volvulus SLO-1A (BK) potassium channels” (Parasites & Vectors, 2025)

Target: T1, Ovo-SLO-1A (Onchocerca volvulus, UniProt A0A2K6W0E9)
T1 construct: T2A-linked GFP as transfection marker; homotetramer; Ala350 printed in S6 (natural residue)
Assay: inside-out and whole-cell patch clamp, transfected HEK293 cells
Assay type: biochemical
Conditions: activator; 0.3 µM (inside-out, +20 mV, 100 µM free Ca2+, bath pH 7.2) or 1 µM (whole-cell, +20 mV); room temperature; empty-vector control

T1 sequence (A0A2K6W0E9 1-1119): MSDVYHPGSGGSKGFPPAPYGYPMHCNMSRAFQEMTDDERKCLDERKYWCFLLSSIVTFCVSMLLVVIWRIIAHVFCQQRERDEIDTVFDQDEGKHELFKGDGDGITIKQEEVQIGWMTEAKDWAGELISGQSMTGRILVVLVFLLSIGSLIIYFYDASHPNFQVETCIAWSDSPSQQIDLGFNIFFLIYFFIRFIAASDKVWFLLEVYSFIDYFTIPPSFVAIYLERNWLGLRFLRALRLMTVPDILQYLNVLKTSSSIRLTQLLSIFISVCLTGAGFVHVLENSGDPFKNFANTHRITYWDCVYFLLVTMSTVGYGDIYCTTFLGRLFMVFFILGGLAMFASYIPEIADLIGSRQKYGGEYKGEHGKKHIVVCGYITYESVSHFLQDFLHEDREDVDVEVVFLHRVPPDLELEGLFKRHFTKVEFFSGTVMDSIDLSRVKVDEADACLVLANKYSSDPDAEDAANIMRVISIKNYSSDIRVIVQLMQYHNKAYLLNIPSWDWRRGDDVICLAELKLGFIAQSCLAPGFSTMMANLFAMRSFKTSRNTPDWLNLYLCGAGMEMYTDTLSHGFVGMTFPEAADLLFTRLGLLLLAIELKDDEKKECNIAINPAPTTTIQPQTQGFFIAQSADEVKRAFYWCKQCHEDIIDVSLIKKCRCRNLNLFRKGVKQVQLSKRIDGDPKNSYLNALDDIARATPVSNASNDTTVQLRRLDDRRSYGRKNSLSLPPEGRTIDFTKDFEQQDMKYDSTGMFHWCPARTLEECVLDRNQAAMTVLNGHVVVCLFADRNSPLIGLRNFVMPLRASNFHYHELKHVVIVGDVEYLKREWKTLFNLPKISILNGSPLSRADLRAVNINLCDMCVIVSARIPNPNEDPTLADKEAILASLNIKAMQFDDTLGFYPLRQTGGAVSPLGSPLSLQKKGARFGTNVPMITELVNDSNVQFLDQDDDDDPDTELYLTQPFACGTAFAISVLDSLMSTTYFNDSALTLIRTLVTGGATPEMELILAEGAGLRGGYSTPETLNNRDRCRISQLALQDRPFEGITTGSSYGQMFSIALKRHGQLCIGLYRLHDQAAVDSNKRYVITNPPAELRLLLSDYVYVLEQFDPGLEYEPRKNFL

## CC(C)C[C@H]1C(=O)O[C@H](Cc2ccc(N3CCOCC3)cc2)C(=O)N(C)[C@@H](CC(C)C)C(=O)O[C@H](C)C(=O)N(C)[C@@H](CC(C)C)C(=O)O[C@H](Cc2ccc(N3CCOCC3)cc2)C(=O)N(C)[C@@H](CC(C)C)C(=O)O[C@H](C)C(=O)N1C [Emodepside]
  inside-out and whole-cell patch clamp, transfected HEK293 cells: The probability of the channel being open, Popen, significantly increased
